From patent publication US20150017203A1, “COMBINATION PRODUCT FOR TREATING EXCESS WEIGHT AND/OR FOR IMPROVING THE FIGURE” (INSTITUT NATIONAL DE LA RECHERCHE AGRONOMIQUE - INRA, priority 2012, published 2015)

Assays:
[1] = Plasma dosages (non-esterified fatty acids, triglycerides, cholesterol, glucose); format: in vivo, mice; settings: for Cholesterolemia compared to control mice: ANOVA p=0.01
Description: 100 male mice C57 Black 6/J aged 5 weeks (January, France) were accommodated in individual cages in the pet center of the INRA center, Theix, in thermoregulated premises (20-22° C.) and submitted to alternating 12 hour-cycles of light and darkness. […] The mice weight was measured every 2 weeks. Prior to being sacrificed, mice after 15 h fasting were anesthetized through barbital intraperitoneal injection (1.5 μl/g). Blood was collected in EDTA-containing specimen collectors before being centrifuged (12000 rpm, 4 min, room temperature). Plasma was thereafter collected, distributed in aliquots and frozen in liquid nitrogen, then stored at −80° C. The adipose peri-epididymal tissue, liver and leg triceps muscle (gastrocnemius muscle), tibialis and quadriceps muscles were weighted, frozen in liquid nitrogen, then stored at −80° C.

[2] = Glucose tolerance measurement (ipGTT test); format: in vivo, mice; settings: for Glucose tolerance: difference with high-lipid diet alone (HL), mice, 3 weeks; for Glucose tolerance compared to the control regimen: ipGTT, glucose 2 mg/g i.p., vs control
Description: (§1) 100 male mice C57 Black 6/J aged 5 weeks (January, France) were accommodated in individual cages in the pet center of the INRA center, Theix, in thermoregulated premises (20-22° C.) and submitted to alternating 12 hour-cycles of light and darkness. After a week of acclimatization under a <<control regimen>> (D12450B, Research Diet, USA), 20 mice continued this regimen for 11 weeks. The other 80 mice were fed with a ? high-lipid regimen ? (HL) (D12451, Research Diet, USA) for 8 weeks. The total calorie intake, in percentages, provided for both the <> and HL regimens 20% proteins and respectively, 70% and 35% carbohydrates and 10% and 45% lipids. […] The mice weight was measured every 2 weeks.
(§2) After a 3-week pharmaco-nutritional regimen, measurements of the insulin sensitivity and glucose tolerance were conducted respectively on 10 mice of each group after a fasting night. Insulin sensitivity measurement: basal glycemia was evaluated using a glucose meter (Glucotouch, Lifescan, USA) on blood droplets collected from the tail. An insulin dose of 0.75 mU/g of weight was administered through intraperitoneal injection and glycemia was evaluated 15, 30, 45, 60 and 120 minutes post injection. Glucose tolerance measurement: a glucose dose (2 mg/g of weight) was administered through intraperitoneal injection. Glycemia was evaluated as for the insulin sensitivity test before and 15, 30, 60 and 120 minutes post injection.
Glucose tolerance measurement (ipGTT test): glucose tolerance is defined as the ability for a mouse to normalize its glycemia when injecting glucose. It is evaluated through the calculation of the area under the curve of the glycemia evolution after an injection of glucose.

[3] = Insulin sensitivity measurement (ipITT test); format: in vivo, mice; settings: for Insulin sensitivity: difference with high-lipid diet alone (HL), mice, 3 weeks
Description: as §1, §2

[4] = Body composition measurement through Echo MRI (body fat, lean body mass); format: in vivo, mice; settings: for Total body fat vs control regimen (Echo MRI): day 80, vs mice under control regimen; for Body fat: difference with high-lipid diet alone (HL), mice, 3 weeks
Description: as §1
Body fat and lean body mass of awake mice after 15 h fasting were quantified using nuclear magnetic resonance (Echo MRI, Houston, USA) at day 80 of the experiment.

[5] = Organ and tissue weights at sacrifice (peri-epididymal adipose tissue, leg muscles, liver); format: in vivo; settings: vs mice under control regimen
Description: as §1
Prior to being sacrificed, mice after 15 h fasting were anesthetized through barbital intraperitoneal injection (1.5 μl/g). Blood was collected in EDTA-containing specimen collectors before being centrifuged (12000 rpm, 4 min, room temperature). Plasma was thereafter collected, distributed in aliquots and frozen in liquid nitrogen, then stored at −80° C. The adipose peri-epididymal tissue, liver and leg triceps muscle (gastrocnemius muscle), tibialis and quadriceps muscles were weighted, frozen in liquid nitrogen, then stored at −80° C.

[6] = Mice weight under high-lipid diet, 3-week pharmaco-nutritional regimen; format: in vivo; settings: after 3-week regimen; vs control regimen
Description: as §1

[7] = conclusions of several clinical assays; cited from earlier work
[8] = taking statin in the long term; cited from earlier work
[9] = difference with high-lipid diet alone (HL), mice, 3 weeks

| SMILES | Plasma levels: Non esterified fatty acids [1, 9] [%] | Plasma levels: Triglycerides [1, 9] [%] | Plasma levels of non-esterified fatty acids compared to control mice ([1]; vs control mice) | Triglyceridemia compared to control mice ([1]; vs control mice) | Cholesterolemia compared to control mice ([1]; vs control mice) | Glucose tolerance [2] | Glucose tolerance compared to the control regimen [2] | Insulin sensitivity [3] | Insulin sensitivity compared to controls ([3]; ipITT, insulin 0.75 mU/g i.p., vs control) | Total body fat vs control regimen (Echo MRI) [4] | Body fat [4] [%] | Weight of peri-epididymal adipose tissue vs control regimen [5] | Mice weight as compared to the controls [6] | Development of type 2 diabetes [7] | Influence on body fat [8] |
| --- | --- | --- | --- | --- | --- | --- | --- | --- | --- | --- | --- | --- | --- | --- | --- |
| NC(=O)NCCC[C@H](N)C(=O)O [L-citrulline, L-Citrulline] | −24 | −15 | at a similar level compared to the control mice | bring triglyceridemia back to the level of that obtained in control mice | significant increase in cholesterolemia | +7% | significant reduction of glucose tolerance | +5% | tend to be less sensitive to insulin | +100% | −7 | doubled | significantly higher | – | – |
| CC(C)c1nc(N(C)S(C)(=O)=O)nc(-c2ccc(F)cc2)c1/C=C/[C@@H](O)C[C@@H](O)CC(=O)O [rosuvastatin] | – | – | – | – | – | – | – | – | – | – | – | – | – | would promote the development of type 2 diabetes | – |
| CC(C)c1c(C(=O)Nc2ccccc2)c(-c2ccccc2)c(-c2ccc(F)cc2)n1CC[C@@H](O)C[C@@H](O)CC(=O)O [Statin, Atorvastatin] | – | – | – | bring triglyceridemia back to the level of that obtained in control mice | significant increase in cholesterolemia | +11% | significant reduction of glucose tolerance | +31% | – | +87% | −13 | doubled | significantly higher | would promote the development of type 2 diabetes | has not any positive influence on body fat |
